Values after ≈ are worked out from the molar mass of the structure shown.
Assays:
Escherichia coli UB 1005 = assay: Antibiotic activity in vitro (MIC); assay type: cell-based; settings: UB1005
Clostridium perfringens = assay: microbe, parasite or virus in culture; assay type: cell-based; settings: read-out: in vitro MIC
[1] = tested on: Streptococcus pyogenes Aronson 1129; assay: Antibiotic activity in vitro (MIC); assay type: cell-based; settings: ARONSON1129
[2] = tested on: Staphylococcus aureus 10 B; assay: Antibiotic activity in vitro (MIC); assay type: cell-based
Proteus mirabilis 1219 = assay: Antibiotic activity in vitro (MIC); assay type: cell-based
[3] = tested on: Klebsiella pneumoniae 327; assay: Antibiotic activity in vitro (MIC); assay type: cell-based
Escherichia coli DC 2 = assay: Antibiotic activity in vitro (MIC); assay type: cell-based; settings: DC2
[4] = tested on: Staphylococcus aureus 2999i+p+; assay: Antibiotic activity in vitro (MIC); assay type: cell-based
[5] = tested on: Neisseria gonorrhoeae 1317/4; assay: Antibiotic activity in vitro (MIC); assay type: cell-based
[6] = tested on: Escherichia coli 205 R + TEM; assay: Antibiotic activity in vitro (MIC); assay type: cell-based; settings: read-out: in vitro MIC
[7] = tested on: Streptococcus pneumoniae III/84; assay: Antibiotic activity in vitro (MIC); assay type: cell-based
Proteus mirabilis 774 = assay: Antibiotic activity in vitro (MIC); assay type: cell-based
Proteus morganii 1518 = assay: Antibiotic activity in vitro (MIC); assay type: cell-based; settings: Morganella morganii
[8] = biological target: T1, dehydropeptidase from human kidneys (Homo sapiens, UniProt P16444); assay: Stability towards the enzyme dehydropeptidase from human kidneys; assay type: in vitro ADME; settings: for half-life: renal dehydropeptidase, enzyme dehydropeptidase from human kidneys, read-out: t1/2 (half-life period), stability towards dehydropeptidase (converted); for half-life period under the action of renal dehydropeptidase compared with compound B: comparison with the racemate compound B, in words
T1 construct: dehydropeptidase from human kidneys; from tissue; host or cells: human kidneys
T1 sequence (P16444 17-411): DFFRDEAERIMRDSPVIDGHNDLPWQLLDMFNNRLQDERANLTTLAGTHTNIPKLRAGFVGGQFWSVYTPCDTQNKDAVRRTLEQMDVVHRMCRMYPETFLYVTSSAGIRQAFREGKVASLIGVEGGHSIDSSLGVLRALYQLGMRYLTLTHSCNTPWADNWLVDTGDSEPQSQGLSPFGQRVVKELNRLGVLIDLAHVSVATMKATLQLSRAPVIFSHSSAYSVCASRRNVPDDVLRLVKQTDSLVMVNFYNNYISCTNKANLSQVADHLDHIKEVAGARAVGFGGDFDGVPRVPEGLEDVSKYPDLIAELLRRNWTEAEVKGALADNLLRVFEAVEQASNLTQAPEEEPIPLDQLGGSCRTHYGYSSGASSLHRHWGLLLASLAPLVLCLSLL
Source text: The stability of compounds A, B and C towards the enzyme dehydropeptidase from human kidneys is as follows (expressed in half-life periods t1/2): […]

Escherichia coli 2018 = assay: Antibiotic activity in vitro (MIC); assay type: cell-based
Escherichia coli B-1385 = assay: Antibiotic activity in vitro (MIC); assay type: cell-based; settings: B1385
[9] = tested on: Staphylococcus aureus Wood 46; assay: Antibiotic activity in vitro (MIC); assay type: cell-based; settings: WOOD46
Escherichia coli 205 = assay: Antibiotic activity in vitro (MIC); assay type: cell-based
[10] = tested on: Enterobacter cloacae ATCC 13047; assay: Antibiotic activity in vitro (MIC); assay type: cell-based; settings: ATCC13047
Proteus morganii 2359 = assay: Antibiotic activity in vitro (MIC); assay type: cell-based; settings: Morganella morganii
[11] = tested on: Staphylococcus aureus A 124; assay: Antibiotic activity in vitro (MIC); assay type: cell-based; settings: A124
[12] = tested on: Neisseria meningitidis 1316; assay: Antibiotic activity in vitro (MIC); assay type: cell-based
Escherichia coli 16 = assay: Antibiotic activity in vitro (MIC); assay type: cell-based
Proteus rettgeri 856 = assay: Antibiotic activity in vitro (MIC); assay type: cell-based; settings: Providencia rettgeri
[13] = tested on: Haemophilus influenzae NCTC 4560; assay: Antibiotic activity in vitro (MIC); assay type: cell-based; settings: NCTC4560
[14] = tested on: Bacteroides fragilis L 01; assay: Antibiotic activity in vitro (MIC); assay type: cell-based; settings: L01
[15] = tested on: Pseudomonas aeruginosa ATCC 12055; assay: Antibiotic activity in vitro (MIC); assay type: cell-based; settings: ATCC12055
Serratia marcescens 344 = assay: Antibiotic activity in vitro (MIC); assay type: cell-based
[16] = tested on: Enterobacter cloacae P 99; assay: Antibiotic activity in vitro (MIC); assay type: cell-based; settings: P99, read-out: in vitro MIC
[17] = tested on: Pseudomonas aeruginosa 143738R; assay: Antibiotic activity in vitro (MIC); assay type: cell-based
[18] = tested on: Pseudomonas aeruginosa K 799/61; assay: Antibiotic activity in vitro (MIC); assay type: cell-based; settings: K799/61, read-out: in vitro MIC

C[C@@H](O)[C@H]1C(=O)N2C(C(=O)O)=C(CN)S[C@H]12 (relative stereo) [compound B, (1'R,5R,6S+1'S,5S,6R)-2-aminomethyl-6-(1'hydroxyethyl) -2-penem-3-carboxylic acid, reference compound]
MIC (Escherichia coli UB 1005): 16 mg/L (≈ 65.5 µM) | MIC (Clostridium perfringens): 4 mg/L (≈ 16.4 µM) | MIC [1]: 0.5 mg/L (≈ 2.05 µM) | MIC [2]: 0.1 mg/L (≈ 0.409 µM) | MIC (Proteus mirabilis 1219): 8 mg/L (≈ 32.8 µM) | MIC [3]: 4 mg/L (≈ 16.4 µM) | MIC (Escherichia coli DC 2): 16 mg/L (≈ 65.5 µM) | MIC [4]: 0.2 mg/L (≈ 0.819 µM) | MIC [5]: 1 mg/L (≈ 4.09 µM) | MIC [6]: 8 mg/L (≈ 32.8 µM) | MIC [7]: 0.2 mg/L (≈ 0.819 µM) | MIC (Proteus mirabilis 774): 4 mg/L (≈ 16.4 µM) | MIC (Proteus morganii 1518): 4 mg/L (≈ 16.4 µM) | half-life [8]: 2.2 h | MIC (Escherichia coli 2018): 4 mg/L (≈ 16.4 µM) | MIC (Escherichia coli B-1385): 8 mg/L (≈ 32.8 µM) | MIC [9]: 0.1 mg/L (≈ 0.409 µM) | MIC (Escherichia coli 205): 8 mg/L (≈ 32.8 µM) | MIC [10]: 16 mg/L (≈ 65.5 µM) | MIC (Proteus morganii 2359): 2 mg/L (≈ 8.19 µM) | MIC [11]: 0.2 mg/L (≈ 0.819 µM) | MIC [12]: 1 mg/L (≈ 4.09 µM) | MIC (Escherichia coli 16): 8 mg/L (≈ 32.8 µM) | MIC (Proteus rettgeri 856): 1 mg/L (≈ 4.09 µM) | MIC [13]: 2 mg/L (≈ 8.19 µM) | MIC [14]: 1 mg/L (≈ 4.09 µM) | MIC [15]: 0.1 mg/L (≈ 0.409 µM) | MIC (Serratia marcescens 344): 8 mg/L (≈ 32.8 µM) | MIC [16]: 8 mg/L (≈ 32.8 µM) | MIC [17]: 2 mg/L (≈ 8.19 µM) | MIC [18]: 0.2 mg/L (≈ 0.819 µM)

C[C@@H](O)[C@H]1C(=O)N2C(C(=O)O)=C(CN)S[C@H]12 [compound A, (5R,6S)-2-aminomethyl-6-[(1'R)-1-hydroxyethyl]-2-penem-3-carboxylic acid]
MIC (Escherichia coli UB 1005): 4 mg/L (≈ 16.4 µM) | MIC (Clostridium perfringens): 2 mg/L (≈ 8.19 µM) | MIC [1]: 0.2 mg/L (≈ 0.819 µM) | MIC [2]: 0.05 mg/L (≈ 0.205 µM) | MIC (Proteus mirabilis 1219): 2 mg/L (≈ 8.19 µM) | MIC [3]: 2 mg/L (≈ 8.19 µM) | MIC (Escherichia coli DC 2): 8 mg/L (≈ 32.8 µM) | MIC [4]: 0.05 mg/L (≈ 0.205 µM) | MIC [5]: 0.5 mg/L (≈ 2.05 µM) | MIC [6]: 4 mg/L (≈ 16.4 µM) | MIC [7]: 0.1 mg/L (≈ 0.409 µM) | MIC (Proteus mirabilis 774): 1 mg/L (≈ 4.09 µM) | MIC (Proteus morganii 1518): 2 mg/L (≈ 8.19 µM) | half-life period under the action of renal dehydropeptidase compared with compound B [8]: considerably greater half-life period | MIC (Escherichia coli 2018): 2 mg/L (≈ 8.19 µM) | MIC (Escherichia coli B-1385): 4 mg/L (≈ 16.4 µM) | MIC [9]: 0.05 mg/L (≈ 0.205 µM) | MIC (Escherichia coli 205): 2 mg/L (≈ 8.19 µM) | MIC [10]: 4 mg/L (≈ 16.4 µM) | MIC (Proteus morganii 2359): 0.5 mg/L (≈ 2.05 µM) | MIC [11]: 0.1 mg/L (≈ 0.409 µM) | MIC [12]: 0.5 mg/L (≈ 2.05 µM) | MIC (Escherichia coli 16): 4 mg/L (≈ 16.4 µM) | MIC (Proteus rettgeri 856): 0.5 mg/L (≈ 2.05 µM) | MIC [13]: 1 mg/L (≈ 4.09 µM) | MIC [14]: 0.5 mg/L (≈ 2.05 µM) | MIC [15]: 0.05 mg/L (≈ 0.205 µM) | MIC (Serratia marcescens 344): 4 mg/L (≈ 16.4 µM) | MIC [16]: 4 mg/L (≈ 16.4 µM) | MIC [17]: 0.5 mg/L (≈ 2.05 µM) | MIC [18]: 0.1 mg/L (≈ 0.409 µM)

NCC1=C(C(=O)O)N2C(=O)[C@H](CO)[C@H]2S1 [compound C, (5R,6S)-2-aminomethyl-6-hydroxymethyl-2-penem-3-carboxylic acid]
MIC (Escherichia coli UB 1005): 2 mg/L (≈ 8.69 µM) | MIC (Clostridium perfringens): 32 mg/L (≈ 139 µM) | MIC [1]: 2 mg/L (≈ 8.69 µM) | MIC [2]: 0.2 mg/L (≈ 0.869 µM) | MIC (Proteus mirabilis 1219): 4 mg/L (≈ 17.4 µM) | MIC [3]: 1 mg/L (≈ 4.34 µM) | MIC (Escherichia coli DC 2): 4 mg/L (≈ 17.4 µM) | MIC [4]: 0.5 mg/L (≈ 2.17 µM) | MIC [5]: 1 mg/L (≈ 4.34 µM) | MIC [6]: 2 mg/L (≈ 8.69 µM) | MIC [7]: 0.5 mg/L (≈ 2.17 µM) | MIC (Proteus mirabilis 774): 1 mg/L (≈ 4.34 µM) | MIC (Proteus morganii 1518): 2 mg/L (≈ 8.69 µM) | half-life period under the action of renal dehydropeptidase compared with compound B [8]: considerably greater half-life period | half-life [8]: 5.5 h | MIC (Escherichia coli 2018): 1 mg/L (≈ 4.34 µM) | MIC (Escherichia coli B-1385): 2 mg/L (≈ 8.69 µM) | MIC [9]: 0.2 mg/L (≈ 0.869 µM) | MIC (Escherichia coli 205): 1 mg/L (≈ 4.34 µM) | MIC [10]: 4 mg/L (≈ 17.4 µM) | MIC (Proteus morganii 2359): 1 mg/L (≈ 4.34 µM) | MIC [11]: 1 mg/L (≈ 4.34 µM) | MIC [12]: 1 mg/L (≈ 4.34 µM) | MIC (Escherichia coli 16): 2 mg/L (≈ 8.69 µM) | MIC (Proteus rettgeri 856): 0.5 mg/L (≈ 2.17 µM) | MIC [13]: 1 mg/L (≈ 4.34 µM) | MIC [14]: 2 mg/L (≈ 8.69 µM) | MIC [15]: 0.2 mg/L (≈ 0.869 µM) | MIC (Serratia marcescens 344): 2 mg/L (≈ 8.69 µM) | MIC [16]: 4 mg/L (≈ 17.4 µM) | MIC [17]: 2 mg/L (≈ 8.69 µM) | MIC [18]: 0.5 mg/L (≈ 2.17 µM)

— patent US4656165A, “Aminomethyl penem compounds” (priority 1983, dated 1987)
